# Measurements published in patent US12558337B2, “Formulations comprising melflufen” (ON[…], priority 2019, dated 2026).
# Several values for one entry are separate records, joined by “and”; a condition that tells them apart may be missing. Identical values can stand only once.
# Assays:
# Format in all cases: physicochemical
# [1] = Stability of isolated melflufen freebase oil; conditions: colorless oil; room temperature; several days
# Experimental: The hydrochloride salt of melflufen may be prepared as disclosed in WO 01/96367, which is incorporated herein by reference. Ethanesulfonate, maleate and p-toluenesulfonate salts of melflufen were prepared by treating the melflufen freebase with 1 equivalent of the respective acid in dichloromethane or ethyl acetate. If required, heptane was added to initiate salt precipitation. All salts were isolated as white solids in a 1:1 ratio of melflufen and counterion, and dried under high vacuum. Melflufen freebase was prepared from melflufen hydrochloride using NaHCO3 and dichloromethane (DCM). Melflufen hydrochloride was suspended in 100 mL of dichloromethane before an ice-cold solution of NaHCO3(aq) was added. The mixture was shaken for 30 seconds and the phases were allowed to settle. The organic phase was collected and dried over MgSO4 before the solvent was removed in vacuo at 0° C. Melflufen freebase was isolated as a colorless oil. No degradation of melflufen was observed by HPLC analysis and the oil was stable at room temperature for several days.
# [2] = Solubility of melflufen (OPD-5) in propylene glycol; conditions: approximately 20 mg/mL prepared
# Experimental: (§1) The formulation was prepared by dissolving melflufen (OPD-5) at a concentration of approximately 20 mg/mL (excluding the mass of the counterion) in propylene glycol (1,2-Propanediol, EMPROVE® exp Ph Eur, BP, USP, Merck Chemicals, #K49954578). 1 mL of the melflufen solution was added into each vial. The filled vials were then closed with a rubber stopper and crimp capped. The 1 mL samples were analysed at T0 (i.e. before storage) and after storage for approximately 4 weeks (T1), 8 weeks (T2), 12 weeks (T3), and 24 weeks (T4) at 2-8° C., 25° C. or 40° C.
# [3] = Stability study of formulation containing melflufen (OPD-5) and propylene glycol at −20° C. and −70° C.; conditions: in propylene glycol
# Experimental: 536.25 mg of melflufen (OPD-5) was weighed into a […] volumetric flask. The flask was then filled with propylene glycol (W294004-1 Kg-K, Lot no: MKCD8681, Sigma-Aldrich). The resulting mixture was vortexed for 3 minutes. The mixture was then stirred for 15 minutes at 28° C. with occasional vortexing to furnish a clear solution having a melflufen concentration of approximately 20 mg/mL (excluding the mass of the counterion). The solution was aliquoted into 1 mL vials and stored at −70° C. or at −20° C.
# The concentration and purity (% relative peak area) of melflufen in the propylene glycol formulation was analysed at time 0 (T0b) and then every 1 month by RP-HPLC. For each time point, two replicated were analysed (i.e. two separate vials of the formulation). At each time point the vials were visually checked for any color change or precipitation.
# RP-HPLC analysis was performed using an Agilent 1100 series Liquid Chromatography, and an XBridge® C18 (2.1×100 mm, 3.5 μm) column. The method used a 5-95% B gradient over 6 min and a flow of 0.8 mL/min (mobile phase A: 0.1% formic acid in water; mobile phase B: 0.1% formic acid in acetonitrile), a column temperature of 55° C., a sampler temperature of 25° C., and UV detection at 262 nm. Samples were then diluted to 200 μg/mL concentration in DMA before injection into RP-HPLC. An injection volume of 5 μL was used.
# [4] = Solubility of melflufen (OPD-5) in PEG 300; conditions: approximately 20 mg/mL prepared
# Experimental: (§2) The formulation was prepared by dissolving melflufen (OPD-5) at a concentration of approximately 20 mg/mL (excluding the mass of the counterion) in polyethylene glycol (polyethylene glycol 300, Emprove exp., Ph. Eur, Merck Chemicals, #K47544702). 1 mL of the melflufen solution was added into each vial. The filled vials were then closed with a rubber stopper and crimp capped. The 1 mL samples were analysed at T0 (i.e. before storage) and after storage for approximately 4 weeks (T1a), 8 weeks (T2a), 12 weeks (T3a), and 24 weeks (T4a) at 2-8° C., 25° C. or 40° C.
# [5] = Stability study of formulation containing melflufen (OPD-5) and propylene glycol at 2-8° C., 25° C. and 40° C. (RP-HPLC, visual appearance); conditions: in propylene glycol; for change in melflufen concentration on storage: up to 168 days
# Experimental: (§3) Vials (2R type 1 glass vials, Gerresheimer, #35601558) were washed with purified water (≤0.2 μmS/cm, <10 ppb Total Organic Carbon (TOC)). Afterwards, the vials were dried and heat-treated at 300° C. for 2 hours. Rubber stoppers were autoclaved at 121° C. and 2 bar for 15 min.
# as §1
# (§4) RP-HPLC analysis was performed using an Agilent 1100 series Liquid Chromatography, and an)(Bridge® Shield (RP18, 3.5 μm, 4.6×150 mm) column. The method used a 0-80% B gradient over 20 min and a flow of 1.0 mL/min (mobile phase A: 10 mM ammonium acetate pH 5.0/acetonitrile 86/14 v/v; mobile phase B: acetonitrile), a column temperature of 20° C., a sampler temperature of 5° C., and UV detection at 262 nm. The pharmaceutical formulations were diluted to a melflufen concentration of 0.8 mg/mL using an ethanol/acetonitrile diluent (3:7 v/v) prior to RP-HPLC analysis.
# [6] = Stability study of formulation containing melflufen (OPD-5) and PEG 300 at 2-8° C., 25° C. and 40° C. (RP-HPLC, visual appearance); conditions: in PEG 300; for change in melflufen concentration on storage: up to 164 days
# Experimental: as §3, §2
# as §4, with “an XBridge®” for “an)(Bridge®”
# [7] = 2-8° C., T1 (31 days), hydrochloride
# [8] = 2-8° C., T4 (168 days), hydrochloride
# [9] = 25° C., T1 (31 days), hydrochloride
# [10] = 25° C., T3 (98 days), hydrochloride
# [11] = 25° C., T4 (168 days), hydrochloride
# [12] = 40° C. (accelerated storage condition), over time
# [13] = 2-8° C., T1a (26 days), hydrochloride
# [14] = 2-8° C., T2a (54 days), hydrochloride
# [15] = 2-8° C., T3a (94 days), hydrochloride
# [16] = 25° C., T1a (26 days), hydrochloride
# [17] = 25° C., T2a (54 days), hydrochloride
# [18] = 25° C., T3a (94 days), hydrochloride
# [19] = 25° C., T4a (164 days), hydrochloride
compound,measurement,setting,value
"CCOC(=O)[C@H](Cc1ccc(F)cc1)NC(=O)[C@@H](N)Cc1ccc(N(CCCl)CCCl)cc1 [Melflufen freebase, L-Melphalanyl-4-fluoro-L-phenylalanine ethyl ester]",stability of the oil,[1],stable
"Cl.[2H]C([2H])([2H])C([2H])([2H])OC(=O)[C@H](Cc1ccc(F)cc1)NC(=O)[C@@H](N)Cc1ccc(N(CCCl)CCCl)cc1 [OPD-5, (^2H5)ethyl (2S)-2-[(2S)-2-amino-3-{4-[bis(2-chloroethyl)amino]phenyl}propanamido]-3-(4-fluorophenyl)propanoate hydrochloride]",solubility in propylene glycol,[2],readily soluble
same,time for which the formulation was stable,[3]; −20° C.,at least 6 months
same,change in melflufen (OPD-5) concentration,"[3]; −20° C., 6 month test period",no notable change
same,melflufen purity retained (relative to the melflufen purity before storage of the formulation),"[3]; −20° C., 6 months",greater than 99.5%
same,colour change or precipitation (visual check),"[3]; −70° C. and −20° C., 6-8 month test period",No colour change or precipitation
same,change in melflufen (OPD-5) concentration,"[3]; −70° C., 8 month test period",no notable change
same,melflufen purity retained (relative to the melflufen purity before storage of the formulation),"[3]; −70° C., 8 months",greater than 99.5%
same,solubility in PEG 300,[4],readily soluble
same,Concentration of melfufen (ODP-5),[5]; [7],20100 µg/mL and 20200 µg/mL
same,Purity of melfufen (ODP-5),[5]; [7],99.1 % relative peak area and 99.3 % relative peak area
same,Purity of melfufen (ODP-5),"[5]; 2-8° C., T2 (59 days)",99.2 % relative peak area
same,Concentration of melfufen (ODP-5),"[5]; 2-8° C., T2 (59 days), hydrochloride",19800 µg/mL and 20300 µg/mL
same,Concentration of melfufen (ODP-5),"[5]; 2-8° C., T3 (98 days)",20500 µg/mL
same,Purity of melfufen (ODP-5),"[5]; 2-8° C., T3 (98 days), hydrochloride",99.0 % relative peak area and 98.5 % relative peak area
same,Concentration of melfufen (ODP-5),[5]; [8],18400 µg/mL and 18300 µg/mL
same,Purity of melfufen (ODP-5),[5]; [8],95.4 % relative peak area and 95.8 % relative peak area
same,visual appearance,"[5]; 2-8° C., at each time point (T1, T2, T3 and T4)",no visible colouration
same,change in melflufen concentration on storage,[5]; 2-8° C.,no significant change
same,Concentration of melfufen (ODP-5),[5]; [9],15700 µg/mL and 15800 µg/mL
same,Purity of melfufen (ODP-5),[5]; [9],89.0 % relative peak area and 89.3 % relative peak area
same,Purity of melfufen (ODP-5),"[5]; 25° C., T2 (59 days)",81.3 % relative peak area
same,Concentration of melfufen (ODP-5),"[5]; 25° C., T2 (59 days), hydrochloride",14100 µg/mL and 12200 µg/mL
same,Concentration of melfufen (ODP-5),[5]; [10],8800 µg/mL and 8400 µg/mL
same,Purity of melfufen (ODP-5),[5]; [10],68.1 % relative peak area and 66.6 % relative peak area
same,Concentration of melfufen (ODP-5),[5]; [11],5100 µg/mL and 4900 µg/mL
same,Purity of melfufen (ODP-5),[5]; [11],49.9 % relative peak area and 48.7 % relative peak area
same,visual appearance,"[5]; 25° C., over time (T1 to T4)",yellow to brown colouration that increased in intensity over time
same,change in melflufen concentration on storage,[5]; 25° C.,decrease over time
same,visual appearance,[5]; [12],yellow to brown colouration that increased in intensity over time
same,melflufen purity retained (relative to the melflufen purity before storage of the formulation),"[5]; about 5° C. (2 to 8° C.), over 50 days",greater than 95%
same,visual appearance,"[6]; 2-8° C., 26 days (T1a)",slight yellow colouration
same,visual appearance,"[6]; 2-8° C., 54 days (T2a), 94 days (T3a) and 164 days (T4a)",small increase in the intensity of the yellow colouration
same,Concentration of melfufen (ODP-5),[6]; [13],19900 µg/mL and 19800 µg/mL
same,Purity of melfufen (ODP-5),[6]; [13],96.7 % relative peak area and 96.9 % relative peak area
same,Concentration of melfufen (ODP-5),[6]; [14],19900 µg/mL and 19300 µg/mL
same,Purity of melfufen (ODP-5),[6]; [14],95.2 % relative peak area and 95.5 % relative peak area
same,Concentration of melfufen (ODP-5),[6]; [15],18700 µg/mL and 18900 µg/mL
same,Purity of melfufen (ODP-5),[6]; [15],92.7 % relative peak area and 92.6 % relative peak area
same,Concentration of melfufen (ODP-5),"[6]; 2-8° C., T4a (164 days)",18700 µg/mL
same,Purity of melfufen (ODP-5),"[6]; 2-8° C., T4a (164 days), hydrochloride",91.4 % relative peak area and 91.3 % relative peak area
same,change in melflufen concentration on storage,[6]; 2-8° C.,no significant change
same,Concentration of melfufen (ODP-5),[6]; [16],18100 µg/mL and 17900 µg/mL
same,Purity of melfufen (ODP-5),[6]; [16],89.3 % relative peak area and 89.6 % relative peak area
same,Concentration of melfufen (ODP-5),[6]; [17],14400 µg/mL and 15300 µg/mL
same,Purity of melfufen (ODP-5),[6]; [17],83.8 % relative peak area and 85.1 % relative peak area
same,Concentration of melfufen (ODP-5),[6]; [18],11200 µg/mL and 11300 µg/mL
same,Purity of melfufen (ODP-5),[6]; [18],74.2 % relative peak area and 74.7 % relative peak area
same,Concentration of melfufen (ODP-5),[6]; [19],9800 µg/mL and 9500 µg/mL
same,Purity of melfufen (ODP-5),[6]; [19],70 % relative peak area and 68.1 % relative peak area
same,visual appearance,"[6]; 25° C., over time (T1a to T4a)",yellow to brown colouration that increased in intensity over time
same,change in melflufen concentration on storage,[6]; 25° C.,decrease over time
same,visual appearance,[6]; [12],yellow to brown colouration that increased in intensity over time
